Laboratory results from patent US20210323950A1, “HERBICIDALLY ACTIVE BICYCLIC BENZOYLPYRAZOLES” (Bayer Aktiengesellschaft, priority 2018, published 2021).

Experiments:
Type in all cases: in vivo
[1] = system: Echinochloa crus-galli (ECHCG); experiment: Pre-emergence herbicidal action against ECHCG; settings: 80 g/ha, scored visually after about 3 weeks vs untreated controls
Text: (§1) ECHCG: Echinochloa crus-galli 1. Pre-Emergence Herbicidal Action and Crop Plant Compatibility Seeds of monocotyledonous and dicotyledonous weed plants and crop plants are placed in plastic or organic planting pots and covered with soil. The compounds of the invention, formulated in the form of wettable powders (WP) or as emulsion concentrates (EC), are then applied onto the surface of the covering soil as aqueous suspension or emulsion with addition of 0.5% additive at a water application rate of […] (converted). After the treatment, the pots are placed in a greenhouse and kept under good growth conditions for the trial plants. After about 3 weeks, the effect of the preparations is scored visually in comparison with untreated controls as percentages. The tables below show the herbicidal activity of numerous compounds according to the invention against important harmful plants. For example, 100% activity=the plants have died, 0% activity=like control plants.

Setaria viridis (SETVI) [2] = experiment: Pre-emergence herbicidal action against SETVI; settings: 80 g/ha, scored visually after about 3 weeks vs untreated controls
Text: as §1, with “SETVI: Setaria viridis” for “ECHCG: Echinochloa crus-galli”

[3] = system: Abutilon theophrasti (ABUTH); experiment: Pre-emergence herbicidal action against ABUTH; settings: 80 g/ha, scored visually after about 3 weeks vs untreated controls
Text: as §1, with “ABUTH: Abutilon theophrasti” for “ECHCG: Echinochloa crus-galli”

[4] = system: Amaranthus retroflexus (AMARE); experiment: Pre-emergence herbicidal action against AMARE; settings: 80 g/ha, scored visually after about 3 weeks vs untreated controls
Text: as §1, with “AMARE: Amaranthus retroflexus” for “ECHCG: Echinochloa crus-galli”

Stellaria media (STEME) [5] = experiment: Pre-emergence herbicidal action against STEME; settings: 80 g/ha, scored visually after about 3 weeks vs untreated controls
Text: as §1, with “STEME: Stellaria media” for “ECHCG: Echinochloa crus-galli”

Viola tricolor (VIOTR) [6] = experiment: Pre-emergence herbicidal action against VIOTR; settings: 80 g/ha, scored visually after about 3 weeks vs untreated controls
Text: as §1, with “VIOTR: Viola tricolor” for “ECHCG: Echinochloa crus-galli”

[7] = system: Echinochloa crus-galli (ECHCG); experiment: Post-emergence herbicidal action against ECHCG; settings: 20 g/ha, post-emergence at one-leaf stage, rated visually after about 3 weeks vs untreated controls
Protocol: (§2) ECHCG: Echinochloa crus-galli 2. Post-Emergence Herbicidal Action and Crop Plant Compatibility Seeds of monocotyledonous and dicotyledonous weeds and crop plants are placed in sandy loam in plastic or organic planting pots, covered with soil and cultivated in a greenhouse under controlled growth conditions. 2 to 3 weeks after sowing, the test plants are treated at the one-leaf stage. The compounds of the invention, formulated in the form of wettable powders (WP) or as emulsion concentrates (EC), are then sprayed onto the green parts of the plants as aqueous suspension or emulsion with addition of 0.5% additive at a water application rate of […] (converted). After the test plants had been kept in the greenhouse under optimum growth conditions for about 3 weeks, the activity of the preparations is rated visually in comparison to untreated controls. The tables below show the herbicidal activity of numerous compounds according to the invention against important harmful plants. For example, 100% activity=the plants have died, 0% activity=like control plants.

Setaria viridis (SETVI) [8] = experiment: Post-emergence herbicidal action against SETVI; settings: 20 g/ha, post-emergence at one-leaf stage, rated visually after about 3 weeks vs untreated controls
Protocol: as §2, with “SETVI: Setaria viridis” for “ECHCG: Echinochloa crus-galli”

[9] = system: Abutilon theophrasti (ABUTH); experiment: Post-emergence herbicidal action against ABUTH; settings: 20 g/ha, post-emergence at one-leaf stage, rated visually after about 3 weeks vs untreated controls
Protocol: as §2, with “ABUTH: Abutilon theophrasti” for “ECHCG: Echinochloa crus-galli”

Veronica persica (VERPE) = experiment: Pre-emergence herbicidal action against VERPE; settings: 80 g/ha, scored visually after about 3 weeks vs untreated controls
Text: as §1, with “VERPE: Veronica persica” for “ECHCG: Echinochloa crus-galli”

Stellaria media (STEME) [10] = experiment: Post-emergence herbicidal action against STEME; settings: 20 g/ha, post-emergence at one-leaf stage, rated visually after about 3 weeks vs untreated controls
Protocol: as §2, with “STEME: Stellaria media” for “ECHCG: Echinochloa crus-galli”

[11] = system: Amaranthus retroflexus (AMARE); experiment: Post-emergence herbicidal action against AMARE; settings: 20 g/ha, post-emergence at one-leaf stage, rated visually after about 3 weeks vs untreated controls
Protocol: as §2, with “AMARE: Amaranthus retroflexus” for “ECHCG: Echinochloa crus-galli”

Viola tricolor (VIOTR) [12] = experiment: Post-emergence herbicidal action against VIOTR; settings: 20 g/ha, post-emergence at one-leaf stage, rated visually after about 3 weeks vs untreated controls
Protocol: as §2, with “VIOTR: Viola tricolor” for “ECHCG: Echinochloa crus-galli”

Structure (SMILES)	Pre-emergence action against ECHCG [1] [%]	Pre-emergence action against SETVI (Setaria viridis (SETVI) [2]) [%]	Pre-emergence action against ABUTH [3] [%]	Pre-emergence action against AMARE [4] [%]	Pre-emergence action against STEME (Stellaria media (STEME) [5]) [%]	Pre-emergence action against VIOTR (Viola tricolor (VIOTR) [6]) [%]	Post-emergence action against ECHCG [7] [%]	Post-emergence action against SETVI (Setaria viridis (SETVI) [8]) [%]	Post-emergence action against ABUTH [9] [%]	Pre-emergence action against VERPE (Veronica persica (VERPE)) [%]	Post-emergence action against STEME (Stellaria media (STEME) [10]) [%]	Post-emergence action against AMARE [11] [%]	Post-emergence action against VIOTR (Viola tricolor (VIOTR) [12]) [%]
CCn1ncc(C(=O)c2ccc(C(F)(F)F)c3c2OCCS3)c1O [Example 1-20]	100	100	100	100	100	100	80	80	80	–	–	–	–
Cc1nn(C)c(O)c1C(=O)c1ccc(C(F)(F)F)c2c1OCCS2 [Example 1-25]	90	100	100	100	90	100	90	–	–	80	100	–	–
CCn1ncc(C(=O)c2ccc(C(F)(F)F)c3c2SCS3)c1O [Example 1-63]	–	–	–	100	90	100	80	–	80	–	80	100	–
Cn1nc(C2CC2)c(C(=O)c2ccc(C(F)(F)F)c3c2OCCS3(=O)=O)c1O [Example 1-119]	80	–	100	100	100	100	–	–	90	90	100	100	–
Cn1nc(CCC(F)(F)F)c(C(=O)c2ccc(C(F)(F)F)c3c2OCS3)c1O [Example 1-127]	–	–	–	–	–	–	–	–	–	–	–	–	80
